Assay results as given in patent publication US11566007B2, “Ras inhibitors” (Revolution Medicines, Inc., priority 2019, dated 2023).
pEC50, pIC50: −log10 of the molar value. Where two headings read alike, the source gives them in different places.

How the values were obtained:
[1] = system: NCI-H358 cells (K-Ras G12C); experiment: Potency assay: pERK in NCI-H358 cells; assay type: cell-based, human; conditions: H358 KRAS G12C, read-out: pERK EC50
How it was run: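 pERK decrease read by AlphaLISA SureFire p-ERK1/2 or In-Cell Western after 4 h compound exposure at 37 °C, 5% CO2.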

KRAS G12S = KRAS G12S (Homo sapiens (Human), UniProt P01116+P62937, G12S); experiment: Ras-Raf (BRAF RBD) disruption / FRET / MOA assay, KRAS G12S; assay type: biochemical; conditions: Ras-Raf disruption/FRET/MOA assay; class symbols; read-out: KRAS G12S FRET data IC50
KRAS G12S, sequence (P01116-2 other isoform, or with tags, fused parts or gaps G12S): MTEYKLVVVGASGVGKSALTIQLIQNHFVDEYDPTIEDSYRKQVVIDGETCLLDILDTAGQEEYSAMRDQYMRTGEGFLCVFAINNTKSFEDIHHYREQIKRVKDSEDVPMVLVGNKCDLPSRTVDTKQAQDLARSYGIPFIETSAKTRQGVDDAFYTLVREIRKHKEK
KRAS G12S, sequence (P62937 whole entry): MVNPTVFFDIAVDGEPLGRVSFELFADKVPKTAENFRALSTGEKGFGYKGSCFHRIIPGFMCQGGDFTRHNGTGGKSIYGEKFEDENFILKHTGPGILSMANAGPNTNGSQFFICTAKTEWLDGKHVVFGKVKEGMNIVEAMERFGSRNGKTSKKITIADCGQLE
How it was run: (§1)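 A 10-point, 3-fold dilution series topping at 30 μM final was incubated 3 h at 25° C with the Ras/cyclophilin A/BRAF RBD mixture.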

NCI-H358 (K-Ras G12C) = experiment: CellTiter-Glo cell viability assay, NCI-H358; assay type: cell-based, human; conditions: NCI-H358, 5-day treatment, class symbols, read-out: Additional H358 Cell Viability assay data (K-Ras G12C, IC50)
How it was run: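 Cells seeded, compound added directly, 5-day exposure. Plates to RT ~30 min, CellTiter-Glo luminescence read. Normalized to DMSO avg (x100); 4-parameter logistic fit.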

KRAS G12D = KRAS G12D (Homo sapiens (Human), UniProt P01116+P62937, G12D); experiment: Ras-Raf (BRAF RBD) disruption / FRET / MOA assay, KRAS G12D; assay type: biochemical; conditions: Ras-Raf disruption/FRET/MOA assay; class symbols; read-out: KRAS G12D FRET data IC50
KRAS G12D, sequence (P01116-2 other isoform, or with tags, fused parts or gaps G12D): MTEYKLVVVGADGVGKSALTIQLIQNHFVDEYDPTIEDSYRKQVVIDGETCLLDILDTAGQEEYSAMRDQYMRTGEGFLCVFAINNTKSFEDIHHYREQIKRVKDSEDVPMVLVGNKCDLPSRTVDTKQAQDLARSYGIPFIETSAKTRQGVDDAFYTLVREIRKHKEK
KRAS G12D, sequence (P62937 whole entry): as the sequence (P62937 whole entry) above
How it was run: as §1

SMILES | pEC50 ([1]; Homo sapiens, NCI-H358) | pIC50 (NCI-H358 (K-Ras G12C); Homo sapiens, NCI-H358, 120 h) | pEC50 [1] | pIC50 (KRAS G12S) | pIC50 (NCI-H358 (K-Ras G12C)) | pIC50 (KRAS G12D)
CCn1c(-c2cccnc2[C@H](C)OC)c2c3cc(ccc31)-c1cc(O)cc(c1)C[C@H](NC(=O)[C@H](C(C)C)N(C)C(=O)c1nc(NC(=O)/C=C/CN(C)C)cs1)C(=O)N1CCC[C@H](N1)C(=O)OCC(C)(C)C2 [Example A258] | – | – | > 5.30 | 5.00 to 6.00 | 6.00 to 7.00 | –
C=CC(=O)N1CCC(F)(C(=O)N(C)[C@H](C(=O)N[C@H]2Cc3cccc(c3)-c3ccc4c(c3)c(c(-c3cccnc3[C@H](C)OC)n4CC)CC(C)(C)COC(=O)[C@@H]3CCCN(N3)C2=O)C(C)C)CC1 (atropisomer, axis not shown) [Example A519] | – | – | > 5.30 | 6.00 to 7.00 | > 8.00 | 5.00 to 6.00
C=CC(=O)N1CC[C@@]2(CCCN([C@H](C(=O)N[C@H]3Cc4cc(O)cc(c4)-c4ccc5c(c4)c(c(-c4ccccc4CCOC)n5CC)CC(C)(C)COC(=O)[C@@H]4CCCN(N4)C3=O)C(C)C)C2=O)C1 [Example A63] | > 5.30 | 6.00 to 7.00 | – | – | – | –
C=CC(=O)N1CC[C@H](C(=O)N(C)[C@H](C(=O)N[C@H]2Cc3cc(O)cc(c3)-c3ccc4c(c3)c(c(-c3ccccc3CCOC)n4CC)CC(C)(C)COC(=O)[C@@H]3CCCN(N3)C2=O)C2CCOCC2)C1 [Example A6] | > 5.30 | 6.00 to 7.00 | – | – | – | –
C=CC(=O)N1CC[C@H](C(=O)N(C)[C@H](C(=O)N[C@H]2Cc3cc(cc(O)c3F)-c3ccc4c(c3)c(c(-c3ccccc3CCOC)n4CC)CC(C)(C)COC(=O)[C@@H]3CCCN(N3)C2=O)C(C)C)C1 [Example A9] | > 5.30 | 6.00 to 7.00 | – | – | – | –
CCn1c(-c2ccccc2CN(C)C)c2c3cc(ccc31)-c1cc(O)cc(c1)C[C@H](NC(=O)[C@H](C(C)C)N(C)C(=O)c1ccc(NC(=O)/C=C/CN(C)C)cn1)C(=O)N1CCC[C@H](N1)C(=O)OCC(C)(C)C2 [Example A46] | > 5.30 | < 6.00 | – | – | – | –
C=CC(=O)N1CC[C@H](C(=O)N(C)[C@H](C(=O)N[C@H]2Cc3cc(OC(=O)CN)cc(c3)-c3ccc4c(c3)c(c(-c3ccccc3CCOC)n4CC)CC(C)(C)COC(=O)[C@@H]3CCCN(N3)C2=O)C(C)C)C1 [Example A8] | > 5.30 | 6.00 to 7.00 | – | – | – | –
CCn1c(-c2cccnc2COC)c2c3cc(ccc31)-c1cc(O)cc(c1)C[C@H](NC(=O)[C@H](C(C)C)N(C)C(=O)c1ccc(NC(=O)/C=C/CN(C)C)cn1)C(=O)N1CCC[C@H](N1)C(=O)OCC(C)(C)C2 [Example A67, (2E)-4-(dimethylamino)-N-(6-{[(1S)-1-{[(8S,14S)-22-ethyl-4-hydroxy-21-[2-(methoxymethyl)pyridin-3-yl]-18,18-dimethyl-9,15-dioxo-16-oxa-10,22,28-triazapentacyclo[18.5.2.1^2,^6.1^10,^14.0^23,^27]nonacosa-1(26),2,4,6(29),20,23(27),24-heptaen-8-yl]carbamoyl}-2-methylpropyl](methyl)carbamoyl}pyridin-3-yl)but-2-enamide] | > 5.30 | 6.00 to 7.00 | – | – | – | –
CCn1c(-c2ccccc2CN(C)C)c2c3cc(ccc31)-c1cc(O)cc(c1)C[C@H](NC(=O)[C@H](C(C)C)N(C)C(=O)[C@H]1CCN(C(=O)/C=C/CN(C)C)C1)C(=O)N1CCC[C@H](N1)C(=O)OCC(C)(C)C2 [Example A47] | > 5.30 | 7.00 to 8.00 | – | – | – | –
C=CC(=O)N1CC[C@H](C(=O)N(C)[C@H](C(=O)N[C@H]2Cc3cc(N)cc(c3)-c3ccc4c(c3)c(c(-c3ccccc3COC)n4CC)CC(C)(C)COC(=O)[C@@H]3CCCN(N3)C2=O)C(C)C)C1 [Example A42] | > 5.30 | 6.00 to 7.00 | – | – | – | –

The next lines start with results.

pEC50 ([1]; Homo sapiens, NCI-H358) | pIC50 (NCI-H358 (K-Ras G12C); Homo sapiens, NCI-H358, 120 h) | SMILES | pEC50 [1] | pIC50 (KRAS G12S) | pIC50 (NCI-H358 (K-Ras G12C)) | pIC50 (KRAS G12D)
> 5.30 | 6.00 to 7.00 | C=CC(=O)N1CC[C@H](C(=O)N(C)[C@H](C(=O)N[C@H]2Cc3cc(O)cc(c3)-c3ccc4c(c3)c(c([C@@H]3CC=CN=C3COC)n4CC)CC(C)(C)COC(=O)[C@@H]3CCCN(N3)C2=O)C(C)C)C1 [Example A65] | – | – | – | –
> 5.30 | 7.00 to 8.00 | C=CC(=O)N1CC[C@H](C(=O)N(C)[C@H](C(=O)N[C@H]2Cc3cc(O)cc(c3)-c3ccc4c(c3)c(c(-c3cnn(C)c3)n4CC)CC(C)(C)COC(=O)[C@@H]3CCCN(N3)C2=O)C(C)C)C1 [Example A99] | – | – | – | –
> 5.30 | 6.00 to 7.00 | C=CC(=O)N1CC[C@H](C(=O)N(C)[C@H](C(=O)N[C@H]2Cc3cc(O)cc(c3)-c3ccc4c(c3)c(c(-c3ncccc3COC)n4CC)CC(C)(C)COC(=O)[C@@H]3CCCN(N3)C2=O)C(C)C)C1 [Example A84] | – | – | – | –
> 5.30 | 7.00 to 8.00 | C=CC(=O)N1CC[C@H](C(=O)N(C)[C@H](C(=O)N[C@H]2Cc3cc(O)cc(c3)-c3ccc4c(c3)c(c(-c3ccccc3[C@H](C)OC)n4CC)CC(C)(C)COC(=O)[C@@H]3CCCN(N3)C2=O)C(C)C)C1 [Example A22] | – | – | – | –
> 5.30 | 6.00 to 7.00 | C=CC(=O)N1CC[C@H](C(=O)N(C)[C@H](C(=O)N[C@H]2Cc3cc(O)cc(c3)-c3ccc4c(c3)c(c(-c3ccccc3[C@@H](C)OC)n4CC)CC(C)(C)COC(=O)[C@@H]3CCCN(N3)C2=O)C(C)C)C1 [Example A29] | – | – | – | –
> 5.30 | 7.00 to 8.00 | C=CC(=O)N1CC[C@H](C(=O)N(C)[C@H](C(=O)N[C@H]2Cc3cc(O)cc(c3)-c3ccc4c(c3)c(c(-c3cccnc3COCC)n4CC)CC(C)(C)COC(=O)[C@@H]3CCCN(N3)C2=O)C(C)C)C1 [Example A44] | – | – | – | –
> 5.30 | > 8.00 | C=CC(=O)N1CC[C@H](C(=O)N(C)[C@H](C(=O)N[C@H]2Cc3cc(O)cc(c3)-c3ccc4c(c3)c(c(-c3cccnc3COC)n4CC)CC(C)(C)COC(=O)[C@@H]3CCCN(N3)C2=O)C2CCCC2)C1 [Example A55] | – | – | – | –
> 5.30 | 7.00 to 8.00 | C=CC(=O)N1CC[C@H](C(=O)N(C)[C@H](C(=O)N[C@H]2Cc3cc(O)cc(c3)-c3ccc4c(c3)c(c(-c3cccnc3N3CC(OC)C3)n4CC)CC(C)(C)COC(=O)[C@@H]3CCCN(N3)C2=O)C(C)C)C1 [Example A60] | – | – | – | –
> 5.30 | 7.00 to 8.00 | C=CC(=O)N1CCC(F)(C(=O)N(C)[C@H](C(=O)N[C@H]2Cc3cc(O)cc(c3)-c3ccc4c(c3)c(c(-c3ccccc3CN(C)C)n4CC)CC(C)(C)COC(=O)[C@@H]3CCCN(N3)C2=O)C(C)C)CC1 [Example A20] | – | – | – | –
> 5.30 | > 8.00 | CCn1c(-c2cccnc2COC)c2c3cc(ccc31)-c1cc(O)cc(c1)C[C@H](NC(=O)[C@H](C(C)C)N(C)C(=O)[C@H]1CCN(C(=O)C#CCN(C)C)C1)C(=O)N1CCC[C@H](N1)C(=O)OCC(C)(C)C2 [Example A96] | – | – | – | –
> 5.30 | 7.00 to 8.00 | CCn1c(-c2cccnc2COC)c2c3cc(ccc31)-c1cc(O)cc(c1)C[C@H](NC(=O)[C@H](C(C)C)N(C)C(=O)[C@H]1CCN(C(=O)C#CCN3CCOCC3)C1)C(=O)N1CCC[C@H](N1)C(=O)OCC(C)(C)C2 [Example A95, (2S)-N-[(8S,14S)-22-ethyl-4-hydroxy-21-[2-(methoxymethyl)pyridin-3-yl]-18,18-dimethyl-9,15-dioxo-16-oxa-10,22,28-triazapentacyclo[18.5.2.1^2,^6.1^10,^14.0^23,^27]nonacosa-1(26),2,4,6(29),20,23(27),24-heptaen-8-yl]-3-methyl-2-{N-methyl-1-[(3S)-1-[4-(morpholin-4-yl)but-2-ynoyl]pyrrolidin-3-yl]formamido}butanamide] | – | – | – | –
